Where two headings read alike, the source gives them in different places.
How the values were obtained:
[1] = alpha form obtained by process of WO 99/03854; cited from earlier work
[2] = Forced degradation (stress) study of imatinib mesylate alpha form; format: physicochemical
[3] = Hygroscopicity of the crystal form according to the invention; format: physicochemical
[4] = 60° C. for 48 hours, listed as RD/IMT-4/31
[5] = 60° C. for 48 hours, listed as RD/IMT-4/34
[6] = 105° C. for 12 hours, listed as RD/IMT-4/31
[7] = 105° C. for 12 hours, listed as RD/IMT-4/34
[8] = As such (i.e. no stress condition)
[9] = As such (i.e. no stress condition), listed as RD/IMT-4/31
[10] = As such (i.e. no stress condition), listed as RD/IMT-4/34
[11] = UV −45° C. 75 RH for 12 hours, listed as RD/IMT-4/31
[12] = UV −45° C. 75 RH for 12 hours, listed as RD/IMT-4/34

CS(=O)(=O)O.Cc1ccc(NC(=O)c2ccc(CN3CCN(C)CC3)cc2)cc1Nc1nccc(-c2cccnc2)n1 [alpha-crystalline form]
hygroscopicity [1]: highly hygroscopic | stability [1]: not stable

CS(=O)(=O)O.Cc1ccc(NC(=O)c2ccc(CN3CCN(C)CC3)cc2)cc1Nc1nccc(-c2cccnc2)n1 [imatinib mesylate]
DSC ([2]; 60° C. for 48 hours): Complies | XRPD ([2]; 60° C. for 48 hours): Complies | DESCRIPTION [2, 4]: Pale yellow | Purity [2, 4]: 99.44% | Single Max. impurity [2, 4]: 0.20% | DESCRIPTION [2, 5]: Cream coloured | Purity [2, 5]: 99.17% | Single Max. impurity [2, 5]: 0.30% | DSC ([2]; 105° C. for 12 hours): Complies | XRPD ([2]; 105° C. for 12 hours): Complies | DESCRIPTION [2, 6]: Pale yellow | Purity [2, 6]: 99.49% | Single Max. impurity [2, 6]: 0.17% | DESCRIPTION [2, 7]: Cream coloured | Purity [2, 7]: 99.18% | Single Max. impurity [2, 7]: 0.32% | DSC [2, 8]: Complies | XRPD [2, 8]: Complies | DESCRIPTION [2, 9]: Pale yellow | Purity [2, 9]: 99.45% | Single Max. impurity [2, 9]: 0.18% | DESCRIPTION [2, 10]: Cream coloured | Purity [2, 10]: 99.26% | Single Max. impurity [2, 10]: 0.33% | DSC ([2]; UV −45° C. 75 RH for 12 hours): Complies | XRPD ([2]; UV −45° C. 75 RH for 12 hours): Complies | DESCRIPTION [2, 11]: Pale yellow | Purity [2, 11]: 99.38% | Single Max. impurity [2, 11]: 0.19% | DESCRIPTION [2, 12]: Cream coloured | Purity [2, 12]: 99.18% | Single Max. impurity [2, 12]: 0.34% | polymorphic stability by DSC and XRPD evaluation ([2]; before and after stress study): polymorphically stable | polymorphic identity under stress conditions ([2]; stress conditions such as milling or heating): retain the polymorphic identity | level of impurities before and after stability study ([2]; stress: 60° C. 48 hours, 105° C. 12 hours, UV 45° C. at 75% RH 12 hours): no increase in the level of impurities | hygroscopicity [3]: non-hygroscopic | HPLC single maximum impurity content (Initial): 0.23 wt % | HPLC total impurity content (Initial): 0.50 wt % | Water content (Initial): 0.39 wt % | HPLC single maximum impurity content (after 6 months): 0.11 wt % | HPLC total impurity content (after 6 months): 0.33 wt % | Water content (after 6 months): 0.61 wt % | HPLC single maximum impurity content (after 12 months): 0.15 wt % | HPLC total impurity content (after 12 months): 0.41 wt % | Water content (after 12 months): 0.58 wt % | stability on storage (storage at ambient temperature): stable chemically and polymorphically

From patent publication US20070265288A1 (priority 2004, published 2007)
